Measurements reported in patent US8673548B2, “Genes and polypeptides relating to breast cancers” (Oncotherapy Science, Inc., priority 2006, dated 2014).
Entries after “also recorded” stand apart in the source; their conditions may differ.

Experiments:
[1] = tested on: PBK/TOPK; assay: western blot of PBK/TOPK phosphorylation in nocodazole-treated mitotic cells with pp1-18; type: cell-based, human; settings: T47D; nocodazole plus 10 μM peptide, 18 or 24 hours
Description: (§1) To inhibit the phosphorylation of PBK/TOPK at Thr9 by CDK1-cyclin B1, we designed permeable peptide (pp1-18) identical to the N-terminus (1-18 amino acids) of PBK/TOPK ([…]-G-[…]: SEQ ID NO: 99) was synthesized by Sigma-Aldrich. The efficacy of the peptide blocking the CDK1-cyclin B1-induced phosphorylation of PBK/TOPK was estimated by in vitro kinase assay according to in vitro kinase section. […] The phosphorylation of PBK/TOPK and cyclin B1 proteins were observed by SDS-PAGE and autoradiography. For the cell proliferation assay, T47D and HMEC cells were seeded at 1.3×10^4 cells in a 12-well plate, respectively. At the following day, each concentration (0, 2.5, 5, and 10 μM) of pp1-18 peptide was treated everyday, and cell viability was measured by MTT assay at 5th day. A significance of the pp 1-18 peptide to suppress T47D cell growth was statistically evaluated by the Student's t-test. To inhibit the phosphorylation of PBK/TOPK in mitotic cells by using pp1-18 peptide, T47D cells were seeded at 1×10^5 cells in a 60 mm dish. Two days after incubation, both nocodazole (0.3 μg/mL) and the permeable peptide (10 μM) were treated for further 18 or 24 hours before collection, and then phosphorylation of PBK/TOPK was investigated by western blotting using anti-PBK/TOPK monoclonal antibody and FACS analysis. […]

[2] = tested on: T47D cells; assay: cell proliferation MTT assay with pp1-18 peptide; type: cell-based, human; settings: 0, 2.5, 5 and 10 μM every day; MTT at 5th day
Description: as §1

[3] = tested on: HMEC cells; assay: cell proliferation MTT assay with pp1-18 peptide; type: cell-based, human; settings: 0, 2.5, 5 and 10 μM every day; MTT at 5th day
Description: as §1

[4] = target: T1, CDK1-cyclin B1 (Homo sapiens, UniProt P06493); assay: in vitro kinase assay, CDK1-cyclin B1 phosphorylation of PBK/TOPK; type: biochemical; settings: peptide 0-20 μM
T1 construct: purchased New England Biolabs
Description: After 30 minutes incubation at 30° C., the reactions were terminated by addition of SDS-sample buffer. After boiling, the protein samples were electrophoresed and autoradiographed.
as §1, with “dish.” for “dish. Two days after incubation, both nocodazole (0.3 μg/mL) and the permeable peptide (10 μM) were treated for further 18 or 24 hours before collection, and then phosphorylation of PBK/TOPK was investigated by western blotting using anti-PBK/TOPK monoclonal antibody and FACS analysis.”

[5] = tested on: T47D cells; assay: phase contrast microscopy of cells treated with pp1-18; type: cell-based, human; settings: 50 μM peptide
[6] = tested on: T47D cells; assay: FACS cell cycle analysis with nocodazole and pp1-18; type: cell-based, human; settings: 24 hours after treatment of nocodazole, 10 μM peptide
Description: as §1

T1 sequence (P06493 whole entry): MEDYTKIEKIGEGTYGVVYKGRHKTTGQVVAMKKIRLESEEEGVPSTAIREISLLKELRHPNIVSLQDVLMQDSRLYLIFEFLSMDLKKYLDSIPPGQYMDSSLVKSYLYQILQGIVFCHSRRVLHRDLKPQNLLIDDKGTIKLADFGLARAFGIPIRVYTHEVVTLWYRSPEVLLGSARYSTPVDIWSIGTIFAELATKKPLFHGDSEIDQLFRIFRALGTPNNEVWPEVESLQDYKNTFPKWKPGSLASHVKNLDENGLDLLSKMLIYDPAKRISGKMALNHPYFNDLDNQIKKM
T1 sequence (P14635 whole entry partner): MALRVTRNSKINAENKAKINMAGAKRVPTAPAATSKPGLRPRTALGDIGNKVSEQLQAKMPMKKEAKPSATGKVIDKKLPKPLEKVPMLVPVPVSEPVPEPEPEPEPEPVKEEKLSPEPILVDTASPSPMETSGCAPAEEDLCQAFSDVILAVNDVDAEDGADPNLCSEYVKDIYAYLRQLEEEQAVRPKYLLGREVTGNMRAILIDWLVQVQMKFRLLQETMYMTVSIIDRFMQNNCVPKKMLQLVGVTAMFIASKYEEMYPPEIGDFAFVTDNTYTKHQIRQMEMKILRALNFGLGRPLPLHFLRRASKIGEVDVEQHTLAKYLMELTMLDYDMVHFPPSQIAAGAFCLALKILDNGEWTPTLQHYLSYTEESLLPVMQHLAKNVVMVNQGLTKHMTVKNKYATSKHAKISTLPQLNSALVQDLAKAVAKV

## RRRRRRRRRRR-G-MEGISNFKTPSKLSEKKK (RRRRRRRRRRRGMEGISNFKTPSKLSEKKK; N-terminal poly-arginine (R11) and glycine linker; An artificialy designed dominant negative) [pp1-18]
[1]
  phosphorylation of PBK/TOPK in mitotic cells: drastically reduced
[2]
  growth of T47D breast cancer cells: significantly suppressed cell growth; also recorded: clearly suppressed the growth
[3]
  growth of HMEC cells: did not affect the growth; also recorded: no effect
[4]
  phosphorylation of recombinant PBK/TOPK protein by CDK1-cyclin B1: diminished in dose-dependent manner
[5]
  cellular morphology: long intercellular bridge; also recorded: prolonged midbodies by abnormal cytokinesis
[6]
  shift to G2/M phase of cell cycle: blocked shift to G2/M phase
